The NIST ThermoML archive (doi:10.1016/j.jct.2007.07.005)
Numbers after ± are expanded uncertainties.

Test: xn = mol fraction of the nth substance listed
Conditions: Fluid (supercritical or subcritical phases), vibrating tube

## CCCCCO [pentan-1-ol] + O=C=O
312.96 K, 512 kPa, x2 = 0
  mass density: 799.65 ± 0.43 kg/m3
312.96 K, 1022 kPa, x2 = 0
  mass density: 800.04 ± 0.43 kg/m3
312.96 K, 1998 kPa, x2 = 0
  mass density: 800.77 ± 0.44 kg/m3
312.96 K, 3005 kPa, x2 = 0
  mass density: 801.53 ± 0.44 kg/m3
312.96 K, 4003 kPa, x2 = 0
  mass density: 802.28 ± 0.44 kg/m3
312.96 K, 5002 kPa, x2 = 0
  mass density: 803.02 ± 0.44 kg/m3
312.96 K, 6018 kPa, x2 = 0
  mass density: 803.76 ± 0.44 kg/m3
312.96 K, 6994 kPa, x2 = 0
  mass density: 804.49 ± 0.44 kg/m3
312.96 K, 8008 kPa, x2 = 0
  mass density: 805.21 ± 0.44 kg/m3
312.96 K, 9005 kPa, x2 = 0
  mass density: 805.93 ± 0.44 kg/m3
312.96 K, 10008 kPa, x2 = 0
  mass density: 806.66 ± 0.44 kg/m3
312.96 K, 11008 kPa, x2 = 0
  mass density: 807.37 ± 0.44 kg/m3
312.96 K, 12000 kPa, x2 = 0
  mass density: 808.07 ± 0.44 kg/m3
312.96 K, 13024 kPa, x2 = 0
  mass density: 808.78 ± 0.44 kg/m3
312.96 K, 13987 kPa, x2 = 0
  mass density: 809.45 ± 0.44 kg/m3
312.96 K, 15014 kPa, x2 = 0
  mass density: 810.14 ± 0.45 kg/m3
312.96 K, 15991 kPa, x2 = 0
  mass density: 810.8 ± 0.45 kg/m3
312.96 K, 17019 kPa, x2 = 0
  mass density: 811.48 ± 0.45 kg/m3
312.96 K, 17991 kPa, x2 = 0
  mass density: 812.12 ± 0.45 kg/m3
312.96 K, 19007 kPa, x2 = 0
  mass density: 812.79 ± 0.45 kg/m3
312.96 K, 19992 kPa, x2 = 0
  mass density: 813.44 ± 0.45 kg/m3
312.96 K, 21031 kPa, x2 = 0
  mass density: 814.1 ± 0.45 kg/m3
312.96 K, 22041 kPa, x2 = 0
  mass density: 814.76 ± 0.45 kg/m3
312.96 K, 23014 kPa, x2 = 0
  mass density: 815.41 ± 0.45 kg/m3
312.96 K, 24003 kPa, x2 = 0
  mass density: 816.04 ± 0.45 kg/m3
312.96 K, 25037 kPa, x2 = 0
  mass density: 816.73 ± 0.45 kg/m3
313.09 K, 6030 kPa, x2 = 0.3624
  mass density: 824 ± 0.44 kg/m3
313.09 K, 6997 kPa, x2 = 0.3624
  mass density: 825.21 ± 0.44 kg/m3
313.09 K, 8012 kPa, x2 = 0.3624
  mass density: 826.4 ± 0.44 kg/m3
313.09 K, 9018 kPa, x2 = 0.3624
  mass density: 827.51 ± 0.44 kg/m3
313.09 K, 10006 kPa, x2 = 0.3624
  mass density: 828.5 ± 0.44 kg/m3
313.09 K, 11027 kPa, x2 = 0.3624
  mass density: 829.51 ± 0.44 kg/m3
313.09 K, 12043 kPa, x2 = 0.3624
  mass density: 830.52 ± 0.44 kg/m3
313.09 K, 13029 kPa, x2 = 0.3624
  mass density: 831.45 ± 0.45 kg/m3
313.09 K, 13978 kPa, x2 = 0.3624
  mass density: 832.37 ± 0.45 kg/m3
313.09 K, 15011 kPa, x2 = 0.3624
  mass density: 833.36 ± 0.45 kg/m3
313.09 K, 16002 kPa, x2 = 0.3624
  mass density: 834.27 ± 0.45 kg/m3
313.09 K, 17008 kPa, x2 = 0.3624
  mass density: 835.17 ± 0.45 kg/m3
313.09 K, 17989 kPa, x2 = 0.3624
  mass density: 836.08 ± 0.45 kg/m3
313.09 K, 19002 kPa, x2 = 0.3624
  mass density: 837 ± 0.45 kg/m3
313.09 K, 20008 kPa, x2 = 0.3624
  mass density: 837.88 ± 0.45 kg/m3
313.09 K, 21025 kPa, x2 = 0.3624
  mass density: 838.76 ± 0.45 kg/m3
313.09 K, 21983 kPa, x2 = 0.3624
  mass density: 839.58 ± 0.45 kg/m3
313.09 K, 23039 kPa, x2 = 0.3624
  mass density: 840.51 ± 0.45 kg/m3
313.09 K, 24001 kPa, x2 = 0.3624
  mass density: 841.34 ± 0.45 kg/m3
313.1 K, 7022 kPa, x2 = 0.4651
  mass density: 831.11 ± 0.44 kg/m3
313.1 K, 8019 kPa, x2 = 0.4651
  mass density: 832.63 ± 0.44 kg/m3
313.1 K, 9041 kPa, x2 = 0.4651
  mass density: 834.14 ± 0.44 kg/m3
313.1 K, 10006 kPa, x2 = 0.8067
  mass density: 827.85 ± 0.51 kg/m3
313.1 K, 10013 kPa, x2 = 0.4651
  mass density: 835.54 ± 0.44 kg/m3
313.1 K, 10035 kPa, x2 = 0.9757
  mass density: 716.11 ± 0.96 kg/m3
313.1 K, 11006 kPa, x2 = 0.8067
  mass density: 834.45 ± 0.49 kg/m3
313.1 K, 11016 kPa, x2 = 0.4651
  mass density: 836.96 ± 0.45 kg/m3
313.1 K, 11020 kPa, x2 = 0.9757
  mass density: 742.56 ± 0.96 kg/m3
313.1 K, 11992 kPa, x2 = 0.9757
  mass density: 762.5 ± 0.78 kg/m3
313.1 K, 12018 kPa, x2 = 0.4651
  mass density: 838.32 ± 0.45 kg/m3
313.1 K, 12019 kPa, x2 = 0.8067
  mass density: 840.12 ± 0.48 kg/m3
313.1 K, 13002 kPa, x2 = 0.8067
  mass density: 845.06 ± 0.48 kg/m3
313.1 K, 13005 kPa, x2 = 0.4651
  mass density: 839.67 ± 0.45 kg/m3
313.1 K, 13014 kPa, x2 = 0.9757
  mass density: 779.62 ± 0.7 kg/m3
313.1 K, 13996 kPa, x2 = 0.8067
  mass density: 849.67 ± 0.47 kg/m3
313.1 K, 14022 kPa, x2 = 0.9757
  mass density: 793.9 ± 0.65 kg/m3
313.1 K, 14035 kPa, x2 = 0.4651
  mass density: 841.03 ± 0.45 kg/m3
313.1 K, 15002 kPa, x2 = 0.9757
  mass density: 806.06 ± 0.62 kg/m3
313.1 K, 15010 kPa, x2 = 0.4651
  mass density: 842.33 ± 0.45 kg/m3
313.1 K, 15017 kPa, x2 = 0.8067
  mass density: 854.05 ± 0.47 kg/m3
313.1 K, 16001 kPa, x2 = 0.9757
  mass density: 817.16 ± 0.6 kg/m3
313.1 K, 16018 kPa, x2 = 0.4651
  mass density: 843.63 ± 0.45 kg/m3
313.1 K, 16028 kPa, x2 = 0.8067
  mass density: 858.11 ± 0.47 kg/m3
313.1 K, 17009 kPa, x2 = 0.8067
  mass density: 861.86 ± 0.47 kg/m3
313.1 K, 17011 kPa, x2 = 0.4651
  mass density: 844.89 ± 0.45 kg/m3
313.1 K, 17026 kPa, x2 = 0.9757
  mass density: 827.46 ± 0.58 kg/m3
313.1 K, 17998 kPa, x2 = 0.9757
  mass density: 836.37 ± 0.56 kg/m3
313.1 K, 18010 kPa, x2 = 0.4651
  mass density: 846.15 ± 0.45 kg/m3
313.1 K, 18017 kPa, x2 = 0.8067
  mass density: 865.48 ± 0.47 kg/m3
313.1 K, 18996 kPa, x2 = 0.4651
  mass density: 847.39 ± 0.45 kg/m3
313.1 K, 19027 kPa, x2 = 0.8067
  mass density: 868.98 ± 0.47 kg/m3
313.1 K, 19034 kPa, x2 = 0.9757
  mass density: 845.17 ± 0.55 kg/m3
313.1 K, 19996 kPa, x2 = 0.8067
  mass density: 872.2 ± 0.47 kg/m3
313.1 K, 20005 kPa, x2 = 0.9757
  mass density: 852.85 ± 0.54 kg/m3
313.1 K, 20038 kPa, x2 = 0.4651
  mass density: 848.66 ± 0.45 kg/m3
313.1 K, 20988 kPa, x2 = 0.4651
  mass density: 849.83 ± 0.45 kg/m3
313.1 K, 20988 kPa, x2 = 0.9757
  mass density: 860.09 ± 0.54 kg/m3
313.1 K, 21011 kPa, x2 = 0.8067
  mass density: 875.4 ± 0.47 kg/m3
313.1 K, 21994 kPa, x2 = 0.9757
  mass density: 867.1 ± 0.53 kg/m3
313.1 K, 22004 kPa, x2 = 0.8067
  mass density: 878.43 ± 0.47 kg/m3
313.1 K, 22029 kPa, x2 = 0.4651
  mass density: 851.07 ± 0.45 kg/m3
313.1 K, 22839 kPa, x2 = 0.9757
  mass density: 872.7 ± 0.53 kg/m3
313.1 K, 22988 kPa, x2 = 0.4651
  mass density: 852.24 ± 0.45 kg/m3
313.1 K, 22990 kPa, x2 = 0.8067
  mass density: 881.33 ± 0.47 kg/m3
313.11 K, 3017 kPa, x2 = 0.0816
  mass density: 805.83 ± 0.44 kg/m3
313.11 K, 4040 kPa, x2 = 0.0816
  mass density: 806.66 ± 0.44 kg/m3
313.11 K, 5020 kPa, x2 = 0.0816
  mass density: 807.44 ± 0.44 kg/m3
313.11 K, 6033 kPa, x2 = 0.0816
  mass density: 808.27 ± 0.44 kg/m3
313.11 K, 6980 kPa, x2 = 0.0816
  mass density: 809.01 ± 0.44 kg/m3
313.11 K, 8003 kPa, x2 = 0.0816
  mass density: 809.81 ± 0.44 kg/m3
313.11 K, 9050 kPa, x2 = 0.0816
  mass density: 810.62 ± 0.44 kg/m3
313.11 K, 10006 kPa, x2 = 0.0816
  mass density: 811.35 ± 0.44 kg/m3
313.11 K, 10023 kPa, x2 = 0.9216
  mass density: 783.1 ± 0.77 kg/m3
313.11 K, 11007 kPa, x2 = 0.9216
  mass density: 796.3 ± 0.59 kg/m3
313.11 K, 11029 kPa, x2 = 0.0816
  mass density: 812.13 ± 0.44 kg/m3
313.11 K, 12014 kPa, x2 = 0.9216
  mass density: 807.61 ± 0.56 kg/m3
313.11 K, 12040 kPa, x2 = 0.0816
  mass density: 812.89 ± 0.44 kg/m3
313.11 K, 13034 kPa, x2 = 0.0816
  mass density: 813.62 ± 0.44 kg/m3
313.11 K, 13034 kPa, x2 = 0.9216
  mass density: 817.54 ± 0.54 kg/m3
313.11 K, 14013 kPa, x2 = 0.9216
  mass density: 826.1 ± 0.53 kg/m3
313.11 K, 14032 kPa, x2 = 0.0816
  mass density: 814.36 ± 0.44 kg/m3
313.11 K, 15008 kPa, x2 = 0.0816
  mass density: 815.08 ± 0.45 kg/m3
313.11 K, 15032 kPa, x2 = 0.9216
  mass density: 834.15 ± 0.52 kg/m3
313.11 K, 16011 kPa, x2 = 0.9216
  mass density: 841.25 ± 0.51 kg/m3
313.11 K, 16019 kPa, x2 = 0.0816
  mass density: 815.8 ± 0.45 kg/m3
313.11 K, 17000 kPa, x2 = 0.9216
  mass density: 847.91 ± 0.51 kg/m3
313.11 K, 17024 kPa, x2 = 0.0816
  mass density: 816.51 ± 0.45 kg/m3
313.11 K, 18011 kPa, x2 = 0.9216
  mass density: 854.26 ± 0.5 kg/m3
313.11 K, 18058 kPa, x2 = 0.0816
  mass density: 817.22 ± 0.45 kg/m3
313.11 K, 18990 kPa, x2 = 0.0816
  mass density: 817.88 ± 0.45 kg/m3
313.11 K, 19003 kPa, x2 = 0.9216
  mass density: 860.12 ± 0.5 kg/m3
313.11 K, 20009 kPa, x2 = 0.9216
  mass density: 865.74 ± 0.5 kg/m3
313.11 K, 20043 kPa, x2 = 0.0816
  mass density: 818.6 ± 0.45 kg/m3
313.11 K, 20983 kPa, x2 = 0.9216
  mass density: 870.88 ± 0.49 kg/m3
313.11 K, 21042 kPa, x2 = 0.0816
  mass density: 819.28 ± 0.45 kg/m3
313.11 K, 22024 kPa, x2 = 0.0816
  mass density: 819.97 ± 0.45 kg/m3
313.11 K, 23035 kPa, x2 = 0.0816
  mass density: 820.66 ± 0.45 kg/m3
